In brackets after ≈: the same amount, converted by molar mass.
Assays:
Type in all cases: functional
[1] = Antioxidant activity assessed as reducing power of ferric ion at 50 ug/ml after 20 mins; parameters: scale not given: the % may be the effect or the level left
Aspergillus flavus [2] = experiment: Antimicrobial activity against Aspergillus flavus MTCC 873 at 50 ug/ml after 24 hrs by agar disc diffusion method; conditions: MTCC 873, 24 h, read-out: DIZ
Escherichia coli [3] = experiment: Antimicrobial activity against Escherichia coli MTCC 724 at 50 ug/ml after 24 hrs by agar disc diffusion method; conditions: MTCC 724, 24 h, read-out: DIZ
Aspergillus niger [4] = experiment: Antimicrobial activity against Aspergillus niger MTCC 281 at 100 ug/ml after 24 hrs by agar disc diffusion method; conditions: MTCC 281, 24 h, read-out: DIZ
[5] = tested on: Radical scavenging activity; experiment: Antioxidant activity assessed as DPPH free radical scavenging activity at 100 ug/ml after 20 mins
Staphylococcus aureus [6] = experiment: Antimicrobial activity against Staphylococcus aureus MTCC 96 at 100 ug/ml after 24 hrs by agar disc diffusion method; conditions: MTCC 96, 24 h, read-out: DIZ
Bacillus cereus [7] = experiment: Antimicrobial activity against Bacillus cereus MTCC 8372
Bacillus cereus [8] = experiment: Antimicrobial activity against Bacillus cereus MTCC 8372 at 100 ug/ml after 24 hrs by agar disc diffusion method; conditions: MTCC 8372, 24 h, read-out: DIZ
[9] = tested on: Radical scavenging activity; experiment: Antioxidant activity assessed as DPPH free radical scavenging activity at 10 ug/ml after 20 mins
[10] = Antioxidant activity assessed as reducing power of ferric ion at 10 ug/ml after 20 mins; parameters: scale not given: the % may be the effect or the level left
Staphylococcus aureus [11] = experiment: Antimicrobial activity against Staphylococcus aureus MTCC 96
Aspergillus niger [12] = experiment: Antimicrobial activity against Aspergillus niger MTCC 281
Klebsiella pneumoniae [13] = experiment: Antimicrobial activity against Klebsiella pneumoniae MTCC 3384 at 50 ug/ml after 24 hrs by agar disc diffusion method; conditions: MTCC 3384, 24 h, read-out: DIZ
Shigella flexneri [14] = experiment: Antimicrobial activity against Shigella flexneri MTCC 1457 at 100 ug/ml after 24 hrs by agar disc diffusion method; conditions: MTCC 1457, 24 h, read-out: DIZ
Escherichia coli [15] = experiment: Antimicrobial activity against Escherichia coli MTCC 724 at 100 ug/ml after 24 hrs by agar disc diffusion method; conditions: MTCC 724, 24 h, read-out: DIZ
Aspergillus flavus [16] = experiment: Antimicrobial activity against Aspergillus flavus MTCC 873 at 100 ug/ml after 24 hrs by agar disc diffusion method; conditions: MTCC 873, 24 h, read-out: DIZ
[17] = Antioxidant activity assessed as reducing power of ferric ion at 100 ug/ml after 20 mins; parameters: scale not given: the % may be the effect or the level left
[18] = Antiinflammatory activity against heat-induced albumin denaturation at […] preincubated for 15 mins before heat induction by UV-vis spectrophotometer analysis
Aspergillus flavus [19] = experiment: Antimicrobial activity against Aspergillus flavus MTCC 873
[20] = Antioxidant activity against ferric chloride-induced lipid peroxidation using egg lecithin at 50 ug/ml after 1 hr
Staphylococcus aureus [21] = experiment: Antimicrobial activity against Staphylococcus aureus MTCC 96 at 50 ug/ml after 24 hrs by agar disc diffusion method; conditions: MTCC 96, 24 h, read-out: DIZ
Escherichia coli [22] = experiment: Antimicrobial activity against Escherichia coli MTCC 724
[23] = Antioxidant activity against ferric chloride-induced lipid peroxidation using egg lecithin at 100 ug/ml after 1 hr
[24] = Antioxidant activity against ferric chloride-induced lipid peroxidation using egg lecithin at 10 ug/ml after 1 hr
Klebsiella pneumoniae [25] = experiment: Antimicrobial activity against Klebsiella pneumoniae MTCC 3384
Aspergillus niger [26] = experiment: Antimicrobial activity against Aspergillus niger MTCC 281 at 50 ug/ml after 24 hrs by agar disc diffusion method; conditions: MTCC 281, 24 h, read-out: DIZ
[27] = tested on: Radical scavenging activity; experiment: Antioxidant activity assessed as DPPH free radical scavenging activity at 50 ug/ml after 20 mins
Shigella flexneri [28] = experiment: Antimicrobial activity against Shigella flexneri MTCC 1457
Bacillus cereus [29] = experiment: Antimicrobial activity against Bacillus cereus MTCC 8372 at 50 ug/ml after 24 hrs by agar disc diffusion method; conditions: MTCC 8372, 24 h, read-out: DIZ
Klebsiella pneumoniae [30] = experiment: Antimicrobial activity against Klebsiella pneumoniae MTCC 3384 at 100 ug/ml after 24 hrs by agar disc diffusion method; conditions: MTCC 3384, 24 h, read-out: DIZ
Shigella flexneri [31] = experiment: Antimicrobial activity against Shigella flexneri MTCC 1457 at 50 ug/ml after 24 hrs by agar disc diffusion method; conditions: MTCC 1457, 24 h, read-out: DIZ

Structure (SMILES)	Activity [1] [%]	zone of inhibition at 50 µg/mL (Aspergillus flavus [2]) [mm]	zone of inhibition at 50 µg/mL (Escherichia coli [3]) [mm]	zone of inhibition at 100 µg/mL (Aspergillus niger [4]) [mm]	Activity [5] [%]	zone of inhibition at 100 µg/mL (Staphylococcus aureus [6]) [mm]	MIC (Bacillus cereus [7]) [µg/mL]	zone of inhibition at 100 µg/mL (Bacillus cereus [8]) [mm]	Activity [9] [%]	Activity [10] [%]	MIC (Staphylococcus aureus [11]) [µg/mL]	MIC (Aspergillus niger [12]) [µg/mL]	zone of inhibition at 50 µg/mL (Klebsiella pneumoniae [13]) [mm]	zone of inhibition at 100 µg/mL (Shigella flexneri [14]) [mm]	zone of inhibition at 100 µg/mL (Escherichia coli [15]) [mm]	zone of inhibition at 100 µg/mL (Aspergillus flavus [16]) [mm]	Activity [17] [%]	inhibition [18] [%]	MIC (Aspergillus flavus [19]) [µg/mL]	inhibition [20] [%]	further results
COc1ccc(-c2nc(C3CC(c4ccc(Cl)cc4)=NN3c3ccccc3)no2)cc1OC (centres undefined)	29	14	8	27	86	12	20 (≈ 43.4 µM)	14	30	14	25 (≈ 54.2 µM)	10 (≈ 21.7 µM)	9	16	12	21	75	53.5	10 (≈ 21.7 µM)	52	zone of inhibition at 50 µg/mL (Staphylococcus aureus [21]): 6 mm; MIC (Escherichia coli [22]): 20 µg/mL (≈ 43.4 µM); inhibition [23]: 73%; inhibition [24]: 30%; MIC (Klebsiella pneumoniae [25]): 15 µg/mL (≈ 32.5 µM); zone of inhibition at 50 µg/mL (Aspergillus niger [26]): 14 mm; Activity [27]: 59%; MIC (Shigella flexneri [28]): 15 µg/mL (≈ 32.5 µM); zone of inhibition at 50 µg/mL (Bacillus cereus [29]): 8 mm; zone of inhibition at 100 µg/mL (Klebsiella pneumoniae [30]): 11 mm; zone of inhibition at 50 µg/mL (Shigella flexneri [31]): 10 mm
Clc1ccc(C2=NN(c3ccccc3)C(c3noc(-c4ccccc4)n3)C2)cc1 (centres undefined)	26	12	4	18	68	11	30 (≈ 74.8 µM)	8	23	13	50 (≈ 125 µM)	15 (≈ 37.4 µM)	6	8	10	18	62	60	10 (≈ 24.9 µM)	44	zone of inhibition at 50 µg/mL (Staphylococcus aureus [21]): 3 mm; MIC (Escherichia coli [22]): 45 µg/mL (≈ 112 µM); inhibition [23]: 71%; inhibition [24]: 31%; MIC (Klebsiella pneumoniae [25]): 25 µg/mL (≈ 62.4 µM); zone of inhibition at 50 µg/mL (Aspergillus niger [26]): 9 mm; Activity [27]: 40%; MIC (Shigella flexneri [28]): 25 µg/mL (≈ 62.4 µM); zone of inhibition at 50 µg/mL (Bacillus cereus [29]): 5 mm; zone of inhibition at 100 µg/mL (Klebsiella pneumoniae [30]): 8 mm; zone of inhibition at 50 µg/mL (Shigella flexneri [31]): 6 mm
c1ccc(C2=NN(c3ccccc3)C(c3noc(-c4ccccc4)n3)C2)cc1 (centres undefined)	16	9	3	14	39	8	30 (≈ 81.9 µM)	8	18	6	50 (≈ 136 µM)	15 (≈ 40.9 µM)	4	8	8	12	58	23.3	15 (≈ 40.9 µM)	40	zone of inhibition at 50 µg/mL (Staphylococcus aureus [21]): 2 mm; MIC (Escherichia coli [22]): 50 µg/mL (≈ 136 µM); inhibition [23]: 57%; inhibition [24]: 21%; MIC (Klebsiella pneumoniae [25]): 30 µg/mL (≈ 81.9 µM); zone of inhibition at 50 µg/mL (Aspergillus niger [26]): 10 mm; Activity [27]: 28%; MIC (Shigella flexneri [28]): 20 µg/mL (≈ 54.6 µM); zone of inhibition at 50 µg/mL (Bacillus cereus [29]): 4 mm; zone of inhibition at 100 µg/mL (Klebsiella pneumoniae [30]): 6 mm; zone of inhibition at 50 µg/mL (Shigella flexneri [31]): 4 mm
COc1ccc(C2=NN(c3ccccc3)C(/C(N)=N/O)C2)cc1 (centres undefined)	22	5	3	12	55	12	35 (≈ 113 µM)	16	18	10	50 (≈ 161 µM)	15 (≈ 48.3 µM)	6	10	8	10	62	23.8	30 (≈ 96.7 µM)	16	zone of inhibition at 50 µg/mL (Staphylococcus aureus [21]): 2 mm; MIC (Escherichia coli [22]): 55 µg/mL (≈ 177 µM); inhibition [23]: 14%; inhibition [24]: 10%; MIC (Klebsiella pneumoniae [25]): 25 µg/mL (≈ 80.6 µM); zone of inhibition at 50 µg/mL (Aspergillus niger [26]): 10 mm; Activity [27]: 33%; MIC (Shigella flexneri [28]): 25 µg/mL (≈ 80.6 µM); zone of inhibition at 50 µg/mL (Bacillus cereus [29]): 4 mm; zone of inhibition at 100 µg/mL (Klebsiella pneumoniae [30]): 9 mm; zone of inhibition at 50 µg/mL (Shigella flexneri [31]): 6 mm

— ChEMBL document CHEMBL2406981, “Novel pyrazoline amidoxime and their 1,2,4-oxadiazole analogues: synthesis and pharmacological screening” (Bioorg Med Chem Lett, 2013)
